This test addresses T1, full length human recombinant glucocorticoid receptor (Homo sapiens, UniProt P04150).
T1 construct: partially purified full length human recombinant glucocorticoid receptor; purchased Panvera/Invitrogen PV4302
T1 sequence (P04150 1-777): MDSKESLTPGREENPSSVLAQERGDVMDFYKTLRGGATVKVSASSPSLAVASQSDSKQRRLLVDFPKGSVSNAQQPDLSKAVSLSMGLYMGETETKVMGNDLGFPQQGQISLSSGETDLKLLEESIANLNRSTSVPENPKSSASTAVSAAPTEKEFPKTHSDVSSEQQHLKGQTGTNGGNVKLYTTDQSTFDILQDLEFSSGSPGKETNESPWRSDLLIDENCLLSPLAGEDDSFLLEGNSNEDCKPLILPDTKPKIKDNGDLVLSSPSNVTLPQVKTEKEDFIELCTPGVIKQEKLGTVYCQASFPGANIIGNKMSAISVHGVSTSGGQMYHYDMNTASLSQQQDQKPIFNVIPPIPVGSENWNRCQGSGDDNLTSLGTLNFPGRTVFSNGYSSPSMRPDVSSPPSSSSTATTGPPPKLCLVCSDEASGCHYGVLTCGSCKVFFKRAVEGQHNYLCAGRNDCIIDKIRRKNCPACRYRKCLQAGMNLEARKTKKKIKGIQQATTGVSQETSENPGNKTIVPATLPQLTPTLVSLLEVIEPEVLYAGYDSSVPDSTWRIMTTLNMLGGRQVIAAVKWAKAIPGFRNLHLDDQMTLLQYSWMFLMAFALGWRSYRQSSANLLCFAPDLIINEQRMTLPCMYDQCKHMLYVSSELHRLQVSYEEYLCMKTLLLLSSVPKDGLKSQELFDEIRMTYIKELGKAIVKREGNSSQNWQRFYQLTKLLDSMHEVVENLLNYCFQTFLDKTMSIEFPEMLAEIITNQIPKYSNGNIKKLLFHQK
As to the kind of experiment: Glucocorticoid Receptor Binding Assay (fluorescence polarization competitor assay, Fluormone GS Far Red tracer). The procedure, abridged: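 Serially diluted compounds competed with the tight-binding far-red fluorescent ligand for recombinant full-length human glucocorticoid receptor plus GR-stabilizing peptide (screening buffer pH 7.4; 3 h, 22 °C, dark). Polarization (610-660 nm) gave IC50 via sigmoidal dose-response fits, and Ki was derived by Cheng-Prusoff from tracer concentration and Kd.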
Background: Fluorescence polarisation rises when a labelled molecule tumbles more slowly, as on binding a larger partner.

As usually defined, the Ki is a dissociation constant, usually derived from enzyme kinetics or from competition with a known ligand. With `CC(c1ccc(Oc2ccc(C(=O)O)c(Cl)c2)cc1Cl)C(O)(c1ccnc(Cl)c1)C(F)(F)F` (stereo not shown) [Example 82, 2-Chloro-4-{3-chloro-4-[2-(2-chloro-pyridin-4-yl)-3,3,3-trifluoro-2-hydroxy-1-methyl-propyl]-phenoxy}-benzoic acid], the Ki turned out to be 5.1 nM. To `CC(c1ccc(Oc2ccc(C(=O)O)c(F)c2)cc1Cl)C(O)(c1ccnc(Cl)c1)C(F)(F)F` (stereo not shown) [Example 83, 4-{3-Chloro-4-[2-(2-chloro-pyridin-4-yl)-3,3,3-trifluoro-2-hydroxy-1-methyl-propyl]-phenoxy}-2-fluoro-benzoic acid] belongs 5.6 nM; to `CC(c1ccc(Oc2ccccc2C(=O)O)cc1Cl)C(O)(c1ccnc(Cl)c1)C(F)(F)F` (stereo not shown) [Example 84, 2-{3-Chloro-4-[2-(2-chloro-pyridin-4-yl)-3,3,3-trifluoro-2-hydroxy-1-methyl-propyl]-phenoxy}-benzoic acid], 35.5 nM. To `CC(c1ccc(Oc2ccc(OCC(=O)O)cc2)cc1Cl)C(O)(c1ccnc(Cl)c1)C(F)(F)F` (stereo not shown) [Example 85, (4-{3-Chloro-4-[2-(2-chloro-pyridin-4-yl)-3,3,3-trifluoro-2-hydroxy-1-methyl-propyl]-phenoxy}-phenoxy)-acetic acid] belongs 1.4 nM; to `COc1cc(Oc2ccc(C(C)C(O)(c3ccnc(Cl)c3)C(F)(F)F)c(Cl)c2)ccc1C(=O)O` (stereo not shown) [Example 86, 4-{3-Chloro-4-[2-(2-chloro-pyridin-4-yl)-3,3,3-trifluoro-2-hydroxy-1-methyl-propyl]-phenoxy}-2-methoxy-benzoic acid], 16.4 nM. Consider `CC(c1ccc(Oc2cccc(CC(=O)O)c2)cc1Cl)C(O)(c1ccnc(Cl)c1)C(F)(F)F` (stereo not shown) [Example 87, (3-{3-Chloro-4-[2-(2-chloro-pyridin-4-yl)-3,3,3-trifluoro-2-hydroxy-1-methyl-propyl]-phenoxy}-phenyl)-acetic acid], for which the Ki was 15.1 nM. The figure for `CC(c1ccc(Oc2ccc(C(=O)O)cc2F)cc1Cl)C(O)(c1ccnc(Cl)c1)C(F)(F)F` (stereo not shown) [Example 88, 4-{3-Chloro-4-[2-(2-chloro-pyridin-4-yl)-3,3,3-trifluoro-2-hydroxy-1-methyl-propyl]-phenoxy}-3-fluoro-benzoic acid] is 1.2 nM; for `CC(c1ccc(Oc2ccc(C(=O)O)cc2Cl)cc1Cl)C(O)(c1ccnc(Cl)c1)C(F)(F)F` (stereo not shown) [Example 89, 3-Chloro-4-{3-chloro-4-[2-(2-chloro-pyridin-4-yl)-3,3,3-trifluoro-2-hydroxy-1-methyl-propyl]-phenoxy}-benzoic acid] it is 3.4 nM. To `CC(c1ccc(Oc2ccc(Cl)c(C(=O)O)c2)cc1Cl)C(O)(c1ccnc(Cl)c1)C(F)(F)F` (stereo not shown) [Example 90, 2-Chloro-5-{3-chloro-4-[2-(2-chloro-pyridin-4-yl)-3,3,3-trifluoro-2-hydroxy-1-methyl-propyl]-phenoxy}-benzoic acid] belongs 4.5 nM.

Turning to `CC(c1ccc(Oc2ccc(F)c(C(=O)O)c2)cc1Cl)C(O)(c1ccnc(Cl)c1)C(F)(F)F` (stereo not shown) [Example 91, 5-{3-Chloro-4-[2-(2-chloro-pyridin-4-yl)-3,3,3-trifluoro-2-hydroxy-1-methyl-propyl]-phenoxy}-2-fluoro-benzoic acid], the Ki came out at 7.1 nM.

For `CCOC(=O)c1ccc(COc2ccc(C(C)C(O)(c3ccnc(C)c3)C(F)(F)F)c(Cl)c2)cc1` (stereo not shown) [Example 93, 4-{3-Chloro-4-[3,3,3-trifluoro-2-hydroxy-1-methyl-2-(2-methyl-pyridin-4-yl)-propyl]-phenoxymethyl}-benzoic acid ethyl ester], the Ki is 8.2 nM. To `Cc1cc(C(O)(C(C)c2ccc(OCc3ccc(C(=O)O)cc3)cc2Cl)C(F)(F)F)ccn1` (stereo not shown) [Example 94, 4-{3-Chloro-4-[3,3,3-trifluoro-2-hydroxy-1-methyl-2-(2-methyl-pyridin-4-yl)-propyl]-phenoxymethyl}-benzoic acid] belongs 4 nM; to `COC(=O)c1ccc(COc2ccc(C(C)C(O)(c3ccnc(C)c3)C(F)(F)F)c(Cl)c2)c(OC)c1` (stereo not shown) [Example 95, 4-{3-Chloro-4-[3,3,3-trifluoro-2-hydroxy-1-methyl-2-(2-methyl-pyridin-4-yl)-propyl]-phenoxymethyl}-3-methoxy-benzoic acid methyl ester], 3.6 nM; to `COc1cc(C(=O)O)ccc1COc1ccc(C(C)C(O)(c2ccnc(C)c2)C(F)(F)F)c(Cl)c1` (stereo not shown) [Example 96, 4-{3-Chloro-4-[3,3,3-trifluoro-2-hydroxy-1-methyl-2-(2-methyl-pyridin-4-yl)-propyl]-phenoxymethyl}-3-methoxy-benzoic acid], 6.1 nM. To `CCOC(=O)c1ccc(COc2ccc(C(C)C(O)(c3ccnc(C)c3)C(F)(F)F)c(Cl)c2)cn1` (stereo not shown) [Example 97, 5-{3-Chloro-4-[3,3,3-trifluoro-2-hydroxy-1-methyl-2-(2-methyl-pyridin-4-yl)-propyl]-phenoxymethyl}-pyridine-2-carboxylic acid ethyl ester] belongs 9.1 nM. The figure for `Cc1cc(C(O)(C(C)c2ccc(OCc3ccc(C(=O)O)nc3)cc2Cl)C(F)(F)F)ccn1` (stereo not shown) [Example 98, 5-{3-Chloro-4-[3,3,3-trifluoro-2-hydroxy-1-methyl-2-(2-methyl-pyridin-4-yl)-propyl]-phenoxymethyl}-pyridine-2-carboxylic acid] is 40.9 nM. In the case of `COC(=O)c1ccnc(COc2ccc(C(C)C(O)(c3ccnc(C)c3)C(F)(F)F)c(Cl)c2)c1` (stereo not shown) [Example 99, 2-{3-Chloro-4-[3,3,3-trifluoro-2-hydroxy-1-methyl-2-(2-methyl-pyridin-4-yl)-propyl]-phenoxymethyl}-isonicotinic acid methyl ester], the Ki was determined as 9.1 nM. For `Cc1cc(C(O)(C(C)c2ccc(OCc3cc(C(=O)O)ccn3)cc2Cl)C(F)(F)F)ccn1` (stereo not shown) [Example 100, 2-{3-Chloro-4-[3,3,3-trifluoro-2-hydroxy-1-methyl-2-(2-methyl-pyridin-4-yl)-propyl]-phenoxymethyl}-isonicotinic acid], the Ki is 34.9 nM. To `CCOC(=O)c1cc(COc2ccc(C(C)C(O)(c3ccnc(C)c3)C(F)(F)F)c(Cl)c2)ccn1` (stereo not shown) [Example 101, 4-{3-Chloro-4-[3,3,3-trifluoro-2-hydroxy-1-methyl-2-(2-methyl-pyridin-4-yl)-propyl]-phenoxymethyl}-pyridine-2-carboxylic acid ethyl ester] belongs 9.4 nM; to `Cc1cc(C(O)(C(C)c2ccc(OCc3ccnc(C(=O)O)c3)cc2Cl)C(F)(F)F)ccn1` (stereo not shown) [Example 102, 4-{3-Chloro-4-[3,3,3-trifluoro-2-hydroxy-1-methyl-2-(2-methyl-pyridin-4-yl)-propyl]-phenoxymethyl}-pyridine-2-carboxylic acid], 20.2 nM; to `COC(=O)c1ccc(Oc2ccc(C(C)C(O)(c3ccnc(C)c3)C(F)(F)F)c(Cl)c2)nn1` (stereo not shown) [Example 104, 6-{3-Chloro-4-[3,3,3-trifluoro-2-hydroxy-1-methyl-2-(2-methyl-pyridin-4-yl)-propyl]-phenoxy}-pyridazine-3-carboxylic acid methyl ester], 87.4 nM.

`Cc1cc(C(O)(C(C)c2ccc(Oc3ccc(C(=O)O)nn3)cc2Cl)C(F)(F)F)ccn1` (stereo not shown) [Example 105, 6-{3-Chloro-4-[3,3,3-trifluoro-2-hydroxy-1-methyl-2-(2-methyl-pyridin-4-yl)-propyl]-phenoxy}-pyridazine-3-carboxylic acid]: the Ki is 361 nM.

These data come from US8138189B2, “Substituted benzene compounds as modulators of the glucocorticoid receptor” (Hoffman-La Roche Inc., priority 2009, dated 2012).
